{"source": "paper PMC6010057", "about": "“Synthesis, carbonic anhydrase I and II inhibition studies of the 1,3,5-trisubstituted-pyrazolines” (Journal of Enzyme Inhibition and Medicinal Chemistry, 2016)", "key": {"hCA II": {"target": "hCA II (Homo sapiens, UniProt P00918)", "experiment": "biochemical"}, "hCA I": {"target": "hCA I (Homo sapiens, UniProt P00915)", "sequence (P00915 whole entry)": "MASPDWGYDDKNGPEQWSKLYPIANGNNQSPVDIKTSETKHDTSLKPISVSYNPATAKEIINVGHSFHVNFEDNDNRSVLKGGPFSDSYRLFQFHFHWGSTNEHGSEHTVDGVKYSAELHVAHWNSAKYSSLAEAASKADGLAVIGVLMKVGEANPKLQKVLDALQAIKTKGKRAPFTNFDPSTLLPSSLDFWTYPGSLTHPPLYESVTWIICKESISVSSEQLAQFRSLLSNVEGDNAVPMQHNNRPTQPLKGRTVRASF", "experiment": "biochemical"}}}
{"compound": "NS(=O)(=O)c1ccc(N2N=C(c3ccccc3)CC2c2ccccc2)cc1", "note": "(stereo not shown) [Compound 9, 4-(3,5-Diphenyl-4,5-dihydro-1H-pyrazol-1-yl)benzenesulfonamide]", "values": [{"measurement": "IC50", "setting": "hCA II", "value": 586, "unit": "nM"}, {"measurement": "Ki", "setting": "hCA II", "value": "625 ± 168", "unit": "nM"}, {"measurement": "IC50", "setting": "hCA I", "value": 555, "unit": "nM"}, {"measurement": "Ki", "setting": "hCA I", "value": "506 ± 133", "unit": "nM"}]}
{"compound": "COc1ccc(C2=NN(c3ccc(S(N)(=O)=O)cc3)C(c3ccccc3)C2)cc1", "note": "(stereo not shown) [Compound 11, 4-(3-(4-Methoxyphenyl)-5-phenyl-4,5-dihydro-1H-pyrazol-1-yl)benzenesulfonamide]", "values": [{"measurement": "IC50", "setting": "hCA II", "value": 486, "unit": "nM"}, {"measurement": "Ki", "setting": "hCA II", "value": "469 ± 63", "unit": "nM"}, {"measurement": "IC50", "setting": "hCA I", "value": 484, "unit": "nM"}, {"measurement": "Ki", "setting": "hCA I", "value": "533 ± 188", "unit": "nM"}]}
{"compound": "NS(=O)(=O)c1ccc(N2N=C(c3ccc(Cl)cc3)CC2c2ccccc2)cc1", "note": "(stereo not shown) [Compound 12, 4-(3-(4-Chlorophenyl)-5-phenyl-4,5-dihydro-1H-pyrazol-1-yl)benzenesulfonamide]", "values": [{"measurement": "IC50", "setting": "hCA II", "value": 559, "unit": "nM"}, {"measurement": "Ki", "setting": "hCA II", "value": "521 ± 132", "unit": "nM"}, {"measurement": "IC50", "setting": "hCA I", "value": 403, "unit": "nM"}, {"measurement": "Ki", "setting": "hCA I", "value": "378 ± 114", "unit": "nM"}]}
{"compound": "NS(=O)(=O)c1ccc(N2N=C(c3ccc(F)cc3)CC2c2ccccc2)cc1", "note": "(stereo not shown) [Compound 13, 4-(3-(4-Fluorophenyl)-5-phenyl-4,5-dihydro-1H-pyrazol-1-yl)benzenesulfonamide]", "values": [{"measurement": "IC50", "setting": "hCA II", "value": 536, "unit": "nM"}, {"measurement": "Ki", "setting": "hCA II", "value": "587 ± 188", "unit": "nM"}, {"measurement": "IC50", "setting": "hCA I", "value": 493, "unit": "nM"}, {"measurement": "Ki", "setting": "hCA I", "value": "462 ± 134", "unit": "nM"}]}
{"compound": "NS(=O)(=O)c1ccc(N2N=C(c3ccc(Br)cc3)CC2c2ccccc2)cc1", "note": "(stereo not shown) [Compound 14, 4-(3-(4-Bromophenyl)-5-phenyl-4,5-dihydro-1H-pyrazol-1-yl)benzenesulfonamide]", "values": [{"measurement": "IC50", "setting": "hCA II", "value": 470, "unit": "nM"}, {"measurement": "Ki", "setting": "hCA II", "value": "412 ± 115", "unit": "nM"}, {"measurement": "IC50", "setting": "hCA I", "value": 405, "unit": "nM"}, {"measurement": "Ki", "setting": "hCA I", "value": "317 ± 9.6", "unit": "nM"}]}
{"compound": "NS(=O)(=O)c1ccc(N2N=C(c3ccc([N+](=O)[O-])cc3)CC2c2ccccc2)cc1", "note": "(stereo not shown) [Compound 15, 4-(3-(4-Nitrophenyl)-5-phenyl-4,5-dihydro-1H-pyrazol-1-yl)benzenesulfonamide]", "values": [{"measurement": "IC50", "setting": "hCA II", "value": 534, "unit": "nM"}, {"measurement": "Ki", "setting": "hCA II", "value": "430 ± 87.3", "unit": "nM"}, {"measurement": "IC50", "setting": "hCA I", "value": 416, "unit": "nM"}, {"measurement": "Ki", "setting": "hCA I", "value": "326 ± 29.4", "unit": "nM"}]}
{"compound": "NS(=O)(=O)c1ccc(N2N=C(c3ccc(O)cc3)CC2c2ccccc2)cc1", "note": "(stereo not shown) [Compound 16, 4-(3-(4-Hydroxyphenyl)-5-phenyl-4,5-dihydro-1H-pyrazol-1-yl)benzenesulfonamide]", "values": [{"measurement": "IC50", "setting": "hCA II", "value": 459, "unit": "nM"}, {"measurement": "Ki", "setting": "hCA II", "value": "592 ± 134", "unit": "nM"}, {"measurement": "IC50", "setting": "hCA I", "value": 528, "unit": "nM"}, {"measurement": "Ki", "setting": "hCA I", "value": "472 ± 57.5", "unit": "nM"}]}
